This note sets out measurements from ChEMBL document CHEMBL1140941 (J Med Chem, 2009).

The structures appear in SMILES notation. pIC50: −log10 of the molar value. Active and inactive are the calls of the source. No cut-off for these calls is given here.

What is called pIC50 is −log10 of the IC50, conventionally taken in molar units. A word on the inhibition: it is how much of the control response was suppressed. As usually defined, the half-life is how long it takes for the measured level to halve.

The target of series [1] is Oxysterols receptor LXR-beta (Homo sapiens) (UniProt P55055). Briefly: Agonist activity at LXRbeta expressed in african green monkey CV1 cells co-expressing LXRE by luciferase reporter gene assay. The class given is functional, cell-based. The following applies: CV-1. For orientation: In a reporter assay the amount or activity of a reporter protein is the signal.
The target in series [2] is Vitamin D3 receptor (Homo sapiens) (UniProt P11473). Briefly: Agonist activity at VP16-VDR expressed in african green monkey CV1 cells co-expressing MH100 by luciferase reporter gene assay. The conditions noted are these: CV-1. Format: functional, cell-based.
Series [3] concerns the target T1, Estrogen receptor (Homo sapiens) (UniProt P03372).
T1 sequence (whole entry): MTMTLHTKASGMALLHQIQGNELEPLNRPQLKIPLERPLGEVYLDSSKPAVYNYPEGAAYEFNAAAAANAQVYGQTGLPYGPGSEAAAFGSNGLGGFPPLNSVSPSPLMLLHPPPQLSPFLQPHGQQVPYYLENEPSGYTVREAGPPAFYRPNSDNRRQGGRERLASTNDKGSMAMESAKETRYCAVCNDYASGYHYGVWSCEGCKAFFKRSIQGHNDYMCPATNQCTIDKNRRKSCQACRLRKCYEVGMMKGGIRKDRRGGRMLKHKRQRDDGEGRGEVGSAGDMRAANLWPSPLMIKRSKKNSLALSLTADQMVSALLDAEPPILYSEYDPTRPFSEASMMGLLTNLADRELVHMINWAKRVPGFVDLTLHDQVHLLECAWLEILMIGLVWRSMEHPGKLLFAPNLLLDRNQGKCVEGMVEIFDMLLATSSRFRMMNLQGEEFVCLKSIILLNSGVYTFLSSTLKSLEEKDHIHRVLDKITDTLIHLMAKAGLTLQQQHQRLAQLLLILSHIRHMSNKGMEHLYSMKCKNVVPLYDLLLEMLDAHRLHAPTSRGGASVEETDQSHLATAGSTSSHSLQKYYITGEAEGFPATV
Kind of series: Agonist activity at gal-ERalpha expressed in african green monkey CV1 cells co-expressing MH100 by luciferase reporter gene assay. The class given is functional, cell-based. The following applies: CV-1.

Series [4] concerns the target Estrogen receptor beta (Homo sapiens) (UniProt Q92731). Briefly: Agonist activity at gal-ERbeta expressed in african green monkey CV1 cells co-expressing MH100 by luciferase reporter gene assay. The conditions noted are these: CV-1. The class given is functional, cell-based.
Series [5] addresses T2, Glucocorticoid receptor (Homo sapiens) (UniProt P04150).
T2 sequence (whole entry): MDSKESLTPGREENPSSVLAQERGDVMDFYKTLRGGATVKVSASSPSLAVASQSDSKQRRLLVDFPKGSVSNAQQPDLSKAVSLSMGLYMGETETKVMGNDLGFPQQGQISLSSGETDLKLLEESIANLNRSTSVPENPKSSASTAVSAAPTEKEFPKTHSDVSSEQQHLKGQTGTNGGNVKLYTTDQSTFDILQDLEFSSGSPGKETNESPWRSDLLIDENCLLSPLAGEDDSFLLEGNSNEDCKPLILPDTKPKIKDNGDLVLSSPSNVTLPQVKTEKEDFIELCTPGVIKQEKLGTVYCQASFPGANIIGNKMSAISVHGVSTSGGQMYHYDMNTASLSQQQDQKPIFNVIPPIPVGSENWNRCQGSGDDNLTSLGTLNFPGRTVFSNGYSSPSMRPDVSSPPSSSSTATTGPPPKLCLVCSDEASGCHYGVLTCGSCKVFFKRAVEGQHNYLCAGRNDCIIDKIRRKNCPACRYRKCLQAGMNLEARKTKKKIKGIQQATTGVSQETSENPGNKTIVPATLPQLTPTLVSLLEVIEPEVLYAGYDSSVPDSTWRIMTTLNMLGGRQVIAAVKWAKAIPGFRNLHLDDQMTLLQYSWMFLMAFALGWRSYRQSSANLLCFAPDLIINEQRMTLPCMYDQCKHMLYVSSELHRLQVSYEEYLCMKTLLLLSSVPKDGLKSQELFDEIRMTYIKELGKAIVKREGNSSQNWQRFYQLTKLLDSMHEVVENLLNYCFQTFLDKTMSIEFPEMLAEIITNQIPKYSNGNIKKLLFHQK
Briefly: Agonist activity at gal-GR expressed in african green monkey CV1 cells co-expressing MH100 by luciferase reporter gene assay. The class given is functional, cell-based. The conditions noted are these: CV-1.

Series [6] has as its target T3, Peroxisome proliferator-activated receptor alpha (Homo sapiens) (UniProt Q07869).
T3 sequence (whole entry): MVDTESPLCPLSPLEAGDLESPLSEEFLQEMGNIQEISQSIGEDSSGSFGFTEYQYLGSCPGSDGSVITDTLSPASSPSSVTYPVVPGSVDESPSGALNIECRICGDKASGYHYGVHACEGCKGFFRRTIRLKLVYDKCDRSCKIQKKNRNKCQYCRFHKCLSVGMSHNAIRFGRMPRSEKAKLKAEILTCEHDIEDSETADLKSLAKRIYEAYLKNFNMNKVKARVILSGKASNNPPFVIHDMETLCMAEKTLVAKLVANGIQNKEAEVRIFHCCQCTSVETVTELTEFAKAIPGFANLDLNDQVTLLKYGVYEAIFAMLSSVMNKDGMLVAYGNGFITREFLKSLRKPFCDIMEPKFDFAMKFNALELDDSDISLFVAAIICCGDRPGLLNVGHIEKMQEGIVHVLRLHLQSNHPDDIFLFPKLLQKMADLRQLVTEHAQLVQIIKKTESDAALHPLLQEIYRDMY
Kind of series: Agonist activity at PPARalpha expressed in african green monkey CV1 cells co-expressing MH100 up to 10 uM by luciferase reporter gene assay relative to control. The following applies: CV-1. Format: functional, cell-based.

Series [7] addresses Retinoic acid receptor RXR-alpha (Homo sapiens) (UniProt P19793). Kind of series: Agonist activity at RXRalpha-LBD expressed in african green monkey CV1 cells co-expressing MH100 up to 10 uM by luciferase reporter gene assay relative to control. The class given is functional, cell-based. The conditions noted are these: CV-1.
The target of series [8] is Estrogen receptor beta (Homo sapiens) (UniProt Q92731). Briefly: Agonist activity at gal-ERbeta expressed in african green monkey CV1 cells co-expressing MH100 up to 10 uM by luciferase reporter gene assay relative to control. Format: functional, cell-based. The following applies: CV-1.
The target of series [9] is Steroid hormone receptor ERR1 (Homo sapiens) (UniProt P11474). Briefly: Antagonist activity at ERRalpha expressed in african green monkey CV1 cells by luciferase reporter gene assay. The following applies: CV-1. Format: functional, cell-based.
Another series has as its target Androgen receptor (Homo sapiens, UniProt P10275). Briefly: Antagonist activity at gal-AR expressed in african green monkey CV1 cells co-expressing MH100 with GRIP1 co-factor by luciferase reporter gene assay. Format: functional, cell-based, CV-1.
In series [10] the target is T1, Estrogen receptor (Homo sapiens). Kind of series: Antagonist activity at gal-ERalpha expressed in african green monkey CV1 cells co-expressing MH100 at 10 uM by luciferase reporter gene assay. Format: functional, cell-based. The following applies: CV-1.
The nature of series [11]: Volume of distribution in CD rat at 3 mg/kg, iv. Format: ADME, organism-based. More on the design: dose 3 mg/kg, route intravenous. The conditions noted are these: in vivo, read-out: Vdss.
Series [12] can be described thus: Half life in CD rat at 3 mg/kg, iv. More on the design: dose 3 mg/kg, route intravenous. The following applies: in vivo. Format: ADME, organism-based.

Chain of Estrogen receptor beta (Homo sapiens) (Q92731 whole entry): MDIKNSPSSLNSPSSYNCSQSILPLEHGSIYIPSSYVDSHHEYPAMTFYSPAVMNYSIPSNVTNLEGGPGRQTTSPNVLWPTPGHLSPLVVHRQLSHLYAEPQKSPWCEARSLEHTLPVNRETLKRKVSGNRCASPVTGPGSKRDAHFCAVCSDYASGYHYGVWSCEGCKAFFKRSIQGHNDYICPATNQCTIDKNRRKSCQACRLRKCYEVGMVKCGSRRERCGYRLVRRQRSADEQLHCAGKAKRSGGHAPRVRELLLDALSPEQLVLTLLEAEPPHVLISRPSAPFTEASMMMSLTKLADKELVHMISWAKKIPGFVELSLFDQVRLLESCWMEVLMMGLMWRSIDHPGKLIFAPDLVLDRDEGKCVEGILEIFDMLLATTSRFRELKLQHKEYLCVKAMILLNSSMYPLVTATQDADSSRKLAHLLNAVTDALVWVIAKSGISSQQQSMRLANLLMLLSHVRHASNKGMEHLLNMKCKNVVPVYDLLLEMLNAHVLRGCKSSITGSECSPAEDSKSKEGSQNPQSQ
Chain of Retinoic acid receptor RXR-alpha (Homo sapiens) (P19793 whole entry, the tested form may be a part): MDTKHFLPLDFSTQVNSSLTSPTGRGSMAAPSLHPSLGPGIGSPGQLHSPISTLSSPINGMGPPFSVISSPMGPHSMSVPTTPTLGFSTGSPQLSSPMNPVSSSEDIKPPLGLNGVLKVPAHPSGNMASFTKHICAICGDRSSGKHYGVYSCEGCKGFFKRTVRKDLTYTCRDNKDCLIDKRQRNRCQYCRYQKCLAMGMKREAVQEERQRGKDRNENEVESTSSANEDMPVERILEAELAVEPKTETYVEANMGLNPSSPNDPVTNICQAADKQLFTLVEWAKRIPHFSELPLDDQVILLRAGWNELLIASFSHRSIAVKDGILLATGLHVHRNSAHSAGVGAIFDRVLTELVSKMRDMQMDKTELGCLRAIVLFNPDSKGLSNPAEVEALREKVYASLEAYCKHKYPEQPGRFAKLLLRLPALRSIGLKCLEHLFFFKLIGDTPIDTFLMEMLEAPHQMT
Chain of Oxysterols receptor LXR-beta (Homo sapiens) (P55055 whole entry): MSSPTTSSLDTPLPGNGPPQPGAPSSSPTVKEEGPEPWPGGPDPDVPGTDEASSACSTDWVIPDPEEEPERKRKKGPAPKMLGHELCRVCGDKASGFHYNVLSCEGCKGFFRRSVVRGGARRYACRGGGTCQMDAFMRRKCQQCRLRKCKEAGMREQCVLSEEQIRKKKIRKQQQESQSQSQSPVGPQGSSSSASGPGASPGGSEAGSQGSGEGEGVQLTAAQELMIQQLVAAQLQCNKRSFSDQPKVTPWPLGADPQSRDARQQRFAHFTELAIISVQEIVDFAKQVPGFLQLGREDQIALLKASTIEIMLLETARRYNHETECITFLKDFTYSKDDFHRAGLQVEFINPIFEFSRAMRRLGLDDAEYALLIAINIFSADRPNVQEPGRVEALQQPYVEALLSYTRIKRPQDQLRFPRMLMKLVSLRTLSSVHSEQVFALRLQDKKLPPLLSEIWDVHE
Chain of Androgen receptor (P10275 whole entry): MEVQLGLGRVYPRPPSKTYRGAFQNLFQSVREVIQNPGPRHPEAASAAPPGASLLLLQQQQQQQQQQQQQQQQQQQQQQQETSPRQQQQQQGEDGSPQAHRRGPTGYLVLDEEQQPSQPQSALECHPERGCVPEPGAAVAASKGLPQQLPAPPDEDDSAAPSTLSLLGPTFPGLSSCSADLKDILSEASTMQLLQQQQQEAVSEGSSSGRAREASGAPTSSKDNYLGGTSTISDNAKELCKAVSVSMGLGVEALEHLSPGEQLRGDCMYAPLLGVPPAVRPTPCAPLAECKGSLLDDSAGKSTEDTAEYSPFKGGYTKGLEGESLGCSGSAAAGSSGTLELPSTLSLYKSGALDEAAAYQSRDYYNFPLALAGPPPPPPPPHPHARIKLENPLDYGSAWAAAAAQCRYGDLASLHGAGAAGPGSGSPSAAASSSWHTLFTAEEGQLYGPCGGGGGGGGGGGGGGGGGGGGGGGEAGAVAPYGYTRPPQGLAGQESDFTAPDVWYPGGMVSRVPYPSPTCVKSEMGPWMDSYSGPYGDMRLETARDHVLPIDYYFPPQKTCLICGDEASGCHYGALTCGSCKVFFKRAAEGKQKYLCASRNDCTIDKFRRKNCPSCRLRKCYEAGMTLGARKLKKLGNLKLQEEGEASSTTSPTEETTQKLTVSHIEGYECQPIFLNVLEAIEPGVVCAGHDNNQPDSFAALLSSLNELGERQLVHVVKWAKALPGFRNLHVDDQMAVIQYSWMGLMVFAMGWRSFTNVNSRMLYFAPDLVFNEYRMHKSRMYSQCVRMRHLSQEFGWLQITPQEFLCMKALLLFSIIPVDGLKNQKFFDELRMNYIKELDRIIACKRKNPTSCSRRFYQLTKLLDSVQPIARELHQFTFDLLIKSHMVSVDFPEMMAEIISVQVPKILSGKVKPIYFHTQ
Chain of Steroid hormone receptor ERR1 (Homo sapiens) (P11474 whole entry): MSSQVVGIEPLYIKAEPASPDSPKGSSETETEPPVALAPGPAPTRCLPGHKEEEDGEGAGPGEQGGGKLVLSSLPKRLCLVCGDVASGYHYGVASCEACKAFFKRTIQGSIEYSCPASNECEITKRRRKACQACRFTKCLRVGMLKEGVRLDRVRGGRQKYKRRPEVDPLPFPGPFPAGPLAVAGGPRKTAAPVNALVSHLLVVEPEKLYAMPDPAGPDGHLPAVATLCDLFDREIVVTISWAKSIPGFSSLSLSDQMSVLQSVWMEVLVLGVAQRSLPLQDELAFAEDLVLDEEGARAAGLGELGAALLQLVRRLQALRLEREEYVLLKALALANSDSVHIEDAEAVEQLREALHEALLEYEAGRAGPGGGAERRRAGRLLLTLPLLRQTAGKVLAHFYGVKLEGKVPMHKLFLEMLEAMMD
Chain of Vitamin D3 receptor (Homo sapiens) (P11473 whole entry): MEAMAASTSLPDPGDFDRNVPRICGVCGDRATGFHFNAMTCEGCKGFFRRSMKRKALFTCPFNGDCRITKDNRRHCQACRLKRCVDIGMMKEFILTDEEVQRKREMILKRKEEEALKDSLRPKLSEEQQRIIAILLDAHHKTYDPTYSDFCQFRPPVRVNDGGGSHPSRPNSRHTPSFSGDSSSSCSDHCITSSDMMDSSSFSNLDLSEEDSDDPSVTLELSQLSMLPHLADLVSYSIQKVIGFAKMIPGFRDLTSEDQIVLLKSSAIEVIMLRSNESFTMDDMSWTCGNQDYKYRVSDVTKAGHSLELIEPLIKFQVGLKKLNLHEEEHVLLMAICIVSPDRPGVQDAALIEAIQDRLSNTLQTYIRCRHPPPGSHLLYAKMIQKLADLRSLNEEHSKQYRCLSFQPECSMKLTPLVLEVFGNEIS

For `CC(C)OC(=O)C1=CN(C(=O)c2ccc(F)c(F)c2)CC(C)(C)c2c1[nH]c1ccccc21` [TUROFEXORATE ISOPROPYL], the outcome in series [1], in series [2], in series [3], in series [4], in series [5] and in [6] was inactive. Besides, the result in series [7], in series [8] and in series [9] was inactive. At Androgen receptor, this compound had a pIC50 of 5.00. The inhibition in [10] came to 24%. In addition, the Vd in series [11] was 3.3 L/kg. In series [12], this compound had a half-life of 40.1 h.
